Test system: SH3P12/CAP/ponsin mRNA
Assay: SH3P12/CAP/ponsin mRNA level in differentiated 3T3-L1 adipocytes after BRL49653
Assay type: cell-based, murine
Details: BRL49653 4.5 μM for 16 hours added to well-differentiated 3T3-L1 adipocytes on day 6; 8.25 fold in the absence of BRL49653

SMILES: CN(CCOc1ccc(CC2SC(=O)NC2=O)cc1)c1ccccn1 (stereo not shown) [BRL49653, rosiglitazone]
- level of SH3P12/CAP/ponsin mRNA, fold higher than pre-induction levels: 17.6 fold

From patent publication US20040072230A1, “Human SORBS1 genetic variations contribute to insulin resistance, obesity, type 2 diabetes, and hypertension” (priority 2002, published 2004)
